Experiments:
Experiment in all cases: relative viability (nuclei count vs DMSO), 5 days (fraction); higher = more cells survive
A-427 = tested on: A-427
How it was run: (§1)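 Relative viability is defined as nuclei in treated wells over nuclei in vehicle wells. Duplicate plates were run and medians reported. Lung cancer cell lines in 1536-well plates were dosed by pin tool one day after seeding, with one drug or with a fixed anchor-drug dose plus five library-drug doses (not always all listed) in √10 steps, and nuclei were counted after 5 days.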

ABC-1 = tested on: ABC-1
How it was run: as §1

CAL-12T = tested on: CAL-12T
How it was run: as §1

H3255 = tested on: H3255
How it was run: as §1

LCLC-97TM1 = tested on: LCLC-97TM1
How it was run: as §1

LK-2 = tested on: LK-2
How it was run: as §1

NCI-H1355 = tested on: NCI-H1355
How it was run: as §1

NCI-H1395 = tested on: NCI-H1395
How it was run: as §1

NCI-H1651 = tested on: NCI-H1651
How it was run: as §1

NCI-H1666 = tested on: NCI-H1666
How it was run: as §1

NCI-H1792 = tested on: NCI-H1792
How it was run: as §1

NCI-H1915 = tested on: NCI-H1915
How it was run: as §1

NCI-H2085 = tested on: NCI-H2085
How it was run: as §1

NCI-H2087 = tested on: NCI-H2087
How it was run: as §1

NCI-H2228 = tested on: NCI-H2228
How it was run: as §1

NCI-H322M = tested on: NCI-H322M
How it was run: as §1

NCI-H358 = tested on: NCI-H358
How it was run: as §1

NCI-H661 = tested on: NCI-H661
How it was run: as §1

NCI-H838 = tested on: NCI-H838
How it was run: as §1

PC-14 = tested on: PC-14
How it was run: as §1

PC-3 [JPC-3] = tested on: PC-3 [JPC-3]
How it was run: as §1

SK-MES-1 = tested on: SK-MES-1
How it was run: as §1

UMC-11 = tested on: UMC-11
How it was run: as §1

With `Cc1cnc(-c2cnc(NCCNc3ccc(C#N)cn3)nc2-c2ccc(Cl)cc2Cl)[nH]1` + CC(=O)c1c(C)c2cnc(Nc3ccc(N4CCNCC4)cn3)nc2n(C2CCCC2)c1=O [Palbociclib] (partner 0.5 µM) the relative viability (A-427; first compound 0.08 µM) was 0.537, the relative viability (A-427; first compound 0.253 µM) was 0.539 and the relative viability (A-427; first compound 0.8 µM) was 0.567. The relative viability (A-427; first compound 2.53 µM) was 0.563, the relative viability (ABC-1; first compound 0.08 µM) was 0.903 and the relative viability (ABC-1; first compound 0.253 µM) was 0.338. For the same compound, the relative viability (ABC-1; first compound 0.8 µM) was 0.54, the relative viability (ABC-1; first compound 2.53 µM) was 0.675 and the relative viability (CAL-12T; first compound 0.08 µM) was 0.43. The relative viability (CAL-12T; first compound 0.253 µM) was 0.413, the relative viability (CAL-12T; first compound 0.8 µM) was 0.37 and the relative viability (CAL-12T; first compound 2.53 µM) was 0.286. The relative viability (H3255; first compound 0.08 µM) was 0.299, the relative viability (H3255; first compound 0.253 µM) was 0.34 and the relative viability (H3255; first compound 0.8 µM) was 0.317. The relative viability (H3255; first compound 2.53 µM) was 0.306, the relative viability (LCLC-97TM1; first compound 0.08 µM) was 0.282 and the relative viability (LCLC-97TM1; first compound 0.253 µM) was 0.17. For the same compound, the relative viability (LCLC-97TM1; first compound 0.8 µM) was 0.215, the relative viability (LCLC-97TM1; first compound 2.53 µM) was 0.209 and the relative viability (LK-2; first compound 0.08 µM) was 0.754. The relative viability (LK-2; first compound 0.253 µM) was 0.645, the relative viability (LK-2; first compound 2.53 µM) was 0.583 and the relative viability (NCI-H1355; first compound 0.08 µM) was 0.427. The relative viability (NCI-H1355; first compound 0.253 µM) was 0.383, the relative viability (NCI-H1355; first compound 0.8 µM) was 0.407 and the relative viability (NCI-H1355; first compound 2.53 µM) was 0.383. For the same compound, the relative viability (NCI-H1395; first compound 0.08 µM) was 0.762, the relative viability (NCI-H1395; first compound 0.253 µM) was 0.619 and the relative viability (NCI-H1395; first compound 0.8 µM) was 0.609. For the same compound, the relative viability (NCI-H1395; first compound 2.53 µM) was 0.65, the relative viability (NCI-H1651; first compound 0.08 µM) was 0.58 and the relative viability (NCI-H1651; first compound 0.253 µM) was 0.468. It also gave a relative viability (NCI-H1651; first compound 0.8 µM) of 0.504, a relative viability (NCI-H1651; first compound 2.53 µM) of 0.549 and a relative viability (NCI-H1666; first compound 0.08 µM) of 0.607. For the same compound, the relative viability (NCI-H1666; first compound 0.253 µM) was 0.626, the relative viability (NCI-H1666; first compound 0.8 µM) was 0.615 and the relative viability (NCI-H1666; first compound 2.53 µM) was 0.609. It also gave a relative viability (NCI-H1792; first compound 0.08 µM) of 0.677, a relative viability (NCI-H1792; first compound 0.253 µM) of 0.551 and a relative viability (NCI-H1792; first compound 0.8 µM) of 0.646. It also gave a relative viability (NCI-H1792; first compound 2.53 µM) of 0.625, a relative viability (NCI-H1915; first compound 0.08 µM) of 0.547 and a relative viability (NCI-H1915; first compound 0.8 µM) of 0.571. The relative viability (NCI-H1915; first compound 2.53 µM) was 0.601, the relative viability (NCI-H2085; first compound 0.08 µM) was 0.469 and the relative viability (NCI-H2085; first compound 0.253 µM) was 0.509. The relative viability (NCI-H2085; first compound 0.8 µM) was 0.504, the relative viability (NCI-H2085; first compound 2.53 µM) was 0.561 and the relative viability (NCI-H2087; first compound 0.08 µM) was 0.235. The relative viability (NCI-H2087; first compound 0.8 µM) was 0.227, the relative viability (NCI-H2087; first compound 2.53 µM) was 0.146 and the relative viability (NCI-H2228; first compound 0.08 µM) was 0.83. It also gave a relative viability (NCI-H2228; first compound 0.253 µM) of 0.716, a relative viability (NCI-H2228; first compound 0.8 µM) of 0.734 and a relative viability (NCI-H2228; first compound 2.53 µM) of 0.648. The relative viability (NCI-H322M; first compound 0.08 µM) was 0.467, the relative viability (NCI-H322M; first compound 0.253 µM) was 0.553 and the relative viability (NCI-H322M; first compound 0.8 µM) was 0.477. For the same compound, the relative viability (NCI-H322M; first compound 2.53 µM) was 0.588, the relative viability (NCI-H358; first compound 0.08 µM) was 0.13 and the relative viability (NCI-H358; first compound 0.253 µM) was 0.14. The relative viability (NCI-H358; first compound 0.8 µM) was 0.134, the relative viability (NCI-H358; first compound 2.53 µM) was 0.143 and the relative viability (NCI-H661; first compound 0.08 µM) was 0.44. The relative viability (NCI-H661; first compound 0.253 µM) was 0.433, the relative viability (NCI-H661; first compound 0.8 µM) was 0.432 and the relative viability (NCI-H661; first compound 2.53 µM) was 0.506. It also gave a relative viability (NCI-H838; first compound 0.08 µM) of 0.259, a relative viability (NCI-H838; first compound 0.253 µM) of 0.256 and a relative viability (NCI-H838; first compound 0.8 µM) of 0.253. For the same compound, the relative viability (NCI-H838; first compound 2.53 µM) was 0.389, the relative viability (PC-14; first compound 0.08 µM) was 0.572 and the relative viability (PC-14; first compound 0.253 µM) was 0.503. For the same compound, the relative viability (PC-14; first compound 0.8 µM) was 0.614, the relative viability (PC-14; first compound 2.53 µM) was 0.323 and the relative viability (PC-3 [JPC-3]; first compound 0.08 µM) was 0.533. It also gave a relative viability (PC-3 [JPC-3]; first compound 0.253 µM) of 0.488, a relative viability (PC-3 [JPC-3]; first compound 0.8 µM) of 0.543 and a relative viability (PC-3 [JPC-3]; first compound 2.53 µM) of 0.503. It also gave a relative viability (SK-MES-1; first compound 0.08 µM) of 0.363, a relative viability (SK-MES-1; first compound 0.253 µM) of 0.332 and a relative viability (SK-MES-1; first compound 0.8 µM) of 0.379. The relative viability (SK-MES-1; first compound 2.53 µM) was 0.394, the relative viability (UMC-11; first compound 0.08 µM) was 0.354 and the relative viability (UMC-11; first compound 0.253 µM) was 0.346. For the same compound, the relative viability (UMC-11; first compound 0.8 µM) was 0.364 and the relative viability (UMC-11; first compound 2.53 µM) was 0.401.

From the supplement of paper PMC10307832
